The results in this text go back to US20240317761A1, “PHARMACEUTICALLY ACCEPTABLE SALT OF MOR RECEPTOR AGONIST, AND POLYMORPH THEREOF AND USE THEREOF” (SHANGHAI HAIYAN PHARMACEUTICAL TECHNOLOGY CO., LTD., priority 2021, published 2024).

Structures are written as SMILES.

Test [1] addresses T1, OPRM1 (MOR) in PathHunter CHO-K1 OPRM1 β-Arrestin Cell Line (Homo sapiens, UniProt P35372).
T1 construct: host or cells: CHO-K1 (PathHunter engineered line, lot 13K0402)
Description: HTRF-cAMP cell assay. The format is cell-based. The method, then:
The cell line used in the following tests was PathHunter® CHO-K1 OPRM1 β-Arrestin Cell Line; origin: DiscoverX, No: 93-0213 C2; lot: 13K0402.
The reagents used, their suppliers, article numbers, and storage temperatures are as follows: • Assay Complete™ Cell Culture Kit 107, DiscoverX, 92-3107G, −20° C.; • AssayComplete™ Thawing Reagent, DiscoverX, 92-4002TR, −20° C.; • AssayComplete™ Cell Detachment Reagent, DiscoverX, 92-0009, −20° C.; • Assay Complete™ Cell Plating Reagent, DiscoverX, 93-0563R2, −20° C.; • PathhunterDetection Kit, DiscoverX, 93-0001, −20° C.; • PBS(1×)0.0067M(PO4), Hyclone, SH30256.01, 4° C.; • DMSO, Sigma, D5879-100 ML, ambient temperature; • NKH477, Sigma, 1603, −20° C.; and • IBMX, Tocris, 15879, −20° C.
The instruments used, their models and suppliers are as follows: • Countsatr BioMed, IM1200, ALIT; • Microscope, IX51, OLYMPUS; • Centrifuge, 5804, Eppendorf; • Thermostatic Water Bath, DK-S420, ShanghaiShenxian thermostatic equipment factory; • Cell Incubator, 3111, Thermo; • Biological Safety Cabinet, BSC-1300IIA2, AIRTECH; • OptiPlate-384White Opaque, 6007290, Perkin Elmer; • Multimode plate Reader, Victor X5, PerkinElmer; • Culture Plate-384 White Opaque, TC-treated, 6007680, PerkinElmer.
1. Cell passaging steps a to h were repeated until the cells passed to the P8 generation. Cells were counted and resuspended in 2×/1 mM IBMX stimulation buffer to a cell density of 1.2*10^6/ml.
2. 1.2*10^6/ml of cell solution was seeded in a 384-well plate in a volume of 10 μl per well (i.e. 12000 cells per well) by using a multichannel pipettor.
1. Relevant reagents were prepared and the compounds were prepared according to the drug dilution preparation table.
a. […]
g. The plate was read by HTRF.
After 60 minutes of incubation, for all samples, reading plates were detected by homogeneous time-resolved fluorescence method.
The data were exported from the corresponding software in the computer connected with the multi-function plate reader, including two signal values of 665 nm and 620 nm. The ratio is calculated as ratio=665 nm signal value/620 nm signal value×10000. […]
(TR-FRET usually uses a lanthanide donor and a delayed reading to cut background.)

Test [2] has as its target T1, OPRM1 (MOR) in PathHunter CHO-K1 OPRM1 β-Arrestin Cell Line. Description: β-Arrestin cell assay. The format is cell-based. The method, then:
The cell line used in the following tests was PathHunter® CHO-K1 OPRM1 β-Arrestin Cell Line; origin: DiscoverX, No: 93-0213 C2; lot: 13K0402. […]
The instruments used, their models and suppliers are as follows: • Countsatr BioMed, IM1200, ALIT; • Microscope, IX51, OLYMPUS; • Centrifuge, 5804, Eppendorf; • Thermostatic Water Bath, DK-S420, ShanghaiShenxian thermostatic equipment factory; • Cell Incubator, 3111, Thermo; • Biological Safety Cabinet, BSC-1300IIA2, AIRTECH; • OptiPlate-384White Opaque, 6007290, Perkin Elmer; • Multimode plate Reader, Victor X5, PerkinElmer; • Culture Plate-384 White Opaque, TC-treated, 6007680, PerkinElmer. […]
1. 20 μl of the cell suspension was pipetted using a pipette and the number of the cells was measured using a cell counter. […]
3. At the end of incubation, the plates were read using a multi-function plate reader.
The data were exported from the corresponding software in the computer connected with the multi-function plate reader, and the data were analyzed by using GraphPad Prism software. […]

[3] abbreviates: maximum effect relative to morphine = 100%.

T1 sequence (P35372 whole entry): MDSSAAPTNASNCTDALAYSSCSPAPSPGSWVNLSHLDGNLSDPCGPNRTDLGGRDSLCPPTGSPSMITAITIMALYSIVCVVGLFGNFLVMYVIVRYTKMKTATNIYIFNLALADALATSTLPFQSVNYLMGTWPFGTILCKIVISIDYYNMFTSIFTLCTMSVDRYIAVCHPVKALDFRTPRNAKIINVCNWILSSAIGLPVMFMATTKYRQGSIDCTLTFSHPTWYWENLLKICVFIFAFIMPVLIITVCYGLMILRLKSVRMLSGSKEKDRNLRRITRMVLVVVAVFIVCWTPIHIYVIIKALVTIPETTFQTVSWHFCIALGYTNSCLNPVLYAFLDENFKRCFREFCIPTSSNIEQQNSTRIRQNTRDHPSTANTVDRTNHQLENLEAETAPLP

For `CC(C)[C@@H]1C[C@H](NCC[C@@]2(c3ccccn3)CCOC3(CCCC3)C2)c2ccnn21` [Compound of formula X, (4S,6S)-6-isopropyl-N-(2-((R)-9-(pyridin-2-yl)-6-oxaspiro[4.5]decane-9-yl)ethyl)-5,6-dihydro-4H-pyrrolo[1,2-b]pyrazol-4-amine], in test [1], the response was half-maximal at 6 nM (EC50). The “bias (cAMP versus β-arrestin)” value in test [2] (compared with comparative compound D1, from Tables 5 and 6) is recorded as “better bias”.

For the compound `CC(C)C1CCC(NCC[C@@]2(c3ccccn3)CCOC3(CCCC3)C2)c2ccnn21` (some centres unmarked) [Comparative compound D1], the EC50 (in general, the concentration at which the effect is half-maximal) in test [1] is 19 nM. The Emax (in general, the greatest response seen or fitted, relative to the assay's reference) in test [1] (setting [3]) amounted to 52.6%; in test [2] (setting [3]), 28.3%.
